What was measured:
[1] = test system: bleomycin-induced lung fibrosis; assay: Bleomycin-induced lung fibrosis model in mice; format: in vivo; conditions: acute setting (3 day)
From the text: Female C57Bl/6 mice (Harlan, 25-30 g) are housed 4 per cage, given free access to food and water and allowed to acclimate for at least 7 days prior to test initiation. After the habituation phase, mice are lightly anesthetized with isoflurane (5% in 100% O2) and administered with bleomycin sulfate (0.01-5 U/kg, Henry Schein) via intratracheal instillation (Cuzzocrea, S. et al., Am. J. Physiol. Lung. Cell. Mol. Physiol., 292(5):[…]-[…] (Epub Jan. 12, 2007)). Mice are returned to their cages and monitored daily for the duration of the experiment. Test compound or vehicle is delivered p.o., i.p. or s.c. daily. The route and frequency of dosing is based on previously determined pharmacokinetic properties. […] BALF is analyzed for concentrations of inflammatory, pro-fibrotic and tissue injury biomarkers including transforming growth factor 131, hyaluronic acid, tissue inhibitor of metalloproteinase-1, matrix matelloproteinase-7, connective tissue growth factor and lactate dehydrogenase activity, using commercially available ELISA. […] Total cell counts are then obtained using a HEMAVET® hematology system (Drew Scientific, Wayne, Pa.) and differential cells counts are determined using Shandon cytospin (Thermo Scientific, Waltham, Mass.). […] The data are plotted using GraphPad Prism and statistical differences between groups determined.

[2] = test system: highly peritoneal metastatic pancreatic cancer cell line; conditions: cited from earlier work
[3] = test system: renal fibrosis; conditions: compared with LPA1 (−/−) mice; cited from earlier work
[4] = target: T1, human LPA1 (Homo sapiens, UniProt Q92633); assay: LPA1 calcium flux assay (HLPA1 Ca Flux); format: cell-based; conditions: CHO cells expressing human LPA1, stimulated with 10 nM LPA
T1 construct: the full-length cDNA for human LPA1 was obtained by PCR of the reverse transcription reaction; expressed in transfected cells
T1 sequence (Q92633 whole entry): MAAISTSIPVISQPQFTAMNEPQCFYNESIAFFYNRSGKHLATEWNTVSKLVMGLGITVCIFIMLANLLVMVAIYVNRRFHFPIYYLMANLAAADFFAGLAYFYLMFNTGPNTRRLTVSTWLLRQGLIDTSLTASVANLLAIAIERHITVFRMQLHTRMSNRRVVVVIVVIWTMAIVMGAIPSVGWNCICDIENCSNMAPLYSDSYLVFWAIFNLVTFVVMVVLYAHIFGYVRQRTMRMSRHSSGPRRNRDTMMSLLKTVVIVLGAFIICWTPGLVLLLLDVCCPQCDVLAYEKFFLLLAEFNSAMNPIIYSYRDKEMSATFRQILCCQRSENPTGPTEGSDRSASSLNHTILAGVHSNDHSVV
Description: A 1.1 kb cDNA encoding the human LPA1 receptor was cloned from human lung. Human lung RNA (Clontech Laboratories, Inc. USA) was reverse transcribed using the RETROSCRIPT® kit (Ambion, Inc.) and the full-length cDNA for human LPA1 was obtained by PCR of the reverse transcription reaction. The nucleotide sequence of the cloned human LPA1 was determined by sequencing and confirmed to be identical to the published human LPA1 sequence (An et al., Biochem. Biophys. Res. Commun., 231:619 (1997). The cDNA was cloned into the pcDNA5/FRT expression plasmid and transfected in CHO cells using Lipofectamine 2000 (Invitrogen Corp., USA). Clones stably expressing human LPA1 were selected using hygromycin and identified as cells that show Ca-influx in response to LPA.
Human LPA1 or LPA3 expressing CHO cells are seeded at 20,000-45,000 cells per well in a 96-well poly-D-lysine coated plate one or two days before the assay. Prior to the assay, the cells are washed once with PBS and then cultured in serum-free media overnight. […] Cells are the stimulated by the addition of 10 nM LPA and intracellular Ca^2+ measured using the FLEXSTATION® 3 (Molecular Devices). IC50s are determined using GraphPad prism analysis of drug titration curves.

[5] = test system: A2058 human melanoma cells; assay: LPA1 chemotaxis assay; format: cell-based; conditions: LPA 100 nM, read-out: IC50, inhibition of LPA-driven chemotaxis
Description: Chemotaxis of the A2058 human melanoma cells was measured using the Neuroprobe CHEMOTX® System plates ([…], 5.7 mm diameter sites). The filter sites were coated with 0.001% fibronectin (Sigma) in 20 mM Hepes, pH 7.4 and allowed to dry. A2058 cells were serum-starved for 24 hours, then harvested with Cell Stripper and resuspended in DMEM containing 0.1% fatty-acid-free bovine serum albumin (BSA) to a concentration of 1×10^6/ml. Cells were mixed with an equal volume of test compound (2×) in DMEM containing 0.1% fatty-acid-free BSA and incubated at 37° C. for 15 minutes. LPA (100 nM in DMEM containing 0.1% fatty-acid-free BSA) or vehicle was added to each well of the lower chamber and 50 μl of the cell suspension/test compound mix was applied to the upper portion of the CHEMOTX® plate. Plates were incubated at 37° C. for three hours and then the cells removed from the upper portion by rinsing with PBS and scraping. The filter was dried then stained with HEMA 3® Staining System (Fisher Scientific). The absorbance of the filter was read at 590 nm and IC50s were determined using SYMYX® Assay Explorer.

## Cc1noc(-c2ccc(-c3ccc(C4(C(=O)O)CC4)cc3)cc2)c1C(O)c1cn(Cc2ccccc2)nn1 (single isomer, unassigned) [Compound 19, 1-(4′-{4-[(1-Benzyl-1H-[1,2,3]triazol-4-yl)-hydroxy-methyl]-3-methyl-isoxazol-5-yl}-biphenyl-4-yl)-cyclopropanecarboxylic acid]
[1]
  collagen concentration in broncheoalveolar lavage fluid (BALF): significantly reduced
  total protein concentration in broncheoalveolar lavage fluid (BALF): significantly reduced

## Cc1noc(-c2ccc(CSCCC(=O)O)cc2)c1NC(=O)OC(C)c1ccccc1Cl (stereo not shown) [Ki16425]
[2]
  LPA-induced and ascites-induced invasion activity: blocked
[3]
  development of renal fibrosis in UUO mice: closely resembled the LPA1 (−/−) mice

## Cc1noc(-c2ccc(-c3ccc(C4(C(=O)O)CC4)cc3)cc2)c1Nc1cccc(-c2cccc(C(F)(F)F)c2Cl)n1 [Compound 84, 1-(4′-{4-[6-(2-Chloro-3-trifluoromethyl-phenyl)-pyridin-2-ylamino]-3-methyl-isoxazol-5-yl}-biphenyl-4-yl)-cyclopropanecarboxylic acid]
[4]
  IC50: 300 to 1000 nM

## Cc1noc(-c2ccc(-c3ccc(C4(C(=O)O)CC4)cc3)cc2)c1Nc1cccc(Cc2ccccc2)c1 [Compound 49, 1-{4′-[4-(3-Benzyl-phenylamino)-3-methyl-isoxazol-5-yl]-biphenyl-4-yl}-cyclopropanecarboxylic acid]
[5]
  IC50: < 100 nM

## Cc1noc(-c2ccc(-c3ccc(C4(C(=O)O)CC4)cc3)cc2)c1Nc1cncc(-c2ccccc2)c1 [Compound 58, 1-{4′-[3-Methyl-4-(5-phenyl-pyridin-3-ylamino)-isoxazol-5-yl]-biphenyl-4-yl}-cyclopropanecarboxylic acid]
[5]
  IC50: < 100 nM

— patent publication US10000456B2, “Polycyclic compounds as lysophosphatidic acid receptor antagonists” (AMIRA PHARMACEUTICALS, INC., priority 2009, dated 2018)
